By IC50 is commonly meant the concentration at which inhibition is half-maximal.

The target in the experiment is T1, Aromatase (Homo sapiens, UniProt P11511).
T1 sequence (P11511 whole entry): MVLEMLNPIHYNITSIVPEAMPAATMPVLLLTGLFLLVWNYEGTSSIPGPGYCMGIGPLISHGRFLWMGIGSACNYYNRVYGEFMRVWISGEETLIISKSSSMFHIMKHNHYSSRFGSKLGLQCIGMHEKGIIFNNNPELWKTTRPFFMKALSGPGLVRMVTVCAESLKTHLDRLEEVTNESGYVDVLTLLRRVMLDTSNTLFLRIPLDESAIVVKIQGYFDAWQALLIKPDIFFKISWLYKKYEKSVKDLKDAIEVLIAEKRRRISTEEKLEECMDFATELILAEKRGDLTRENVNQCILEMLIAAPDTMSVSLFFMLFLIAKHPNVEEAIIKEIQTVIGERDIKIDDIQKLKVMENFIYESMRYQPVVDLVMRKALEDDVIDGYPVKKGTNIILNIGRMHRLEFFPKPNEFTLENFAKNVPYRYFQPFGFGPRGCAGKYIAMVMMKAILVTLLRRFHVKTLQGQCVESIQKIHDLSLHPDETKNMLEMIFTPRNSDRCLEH
In the case of `C[C@]12C=CC(=O)C(Sc3ccccc3)=C1CC[C@@H]1[C@@H]2CC[C@]2(C)C(=O)CC[C@@H]12`, the midpoint of inhibition, the IC50, lay at 0.5 µM.

On to `CC1(C)C[C@@]2(C)C(=CC1=O)[C@@H](Br)C[C@@H]1[C@@H]2CC[C@]2(C)C(=O)CC[C@@H]12`, for which the IC50 was 0.1 µM.

For the compound `C[C@]12CCC(=O)C(Sc3ccccc3)=C1CC[C@@H]1[C@@H]2CC[C@]2(C)C(=O)CC[C@@H]12`, the IC50 is 0.18 µM.

In turn, `CC1(C)C[C@@]2(C)C(=CC1=O)[C@H](Br)C[C@@H]1[C@@H]2CC[C@]2(C)C(=O)CC[C@@H]12` had an IC50 of 0.11 µM.

For `C[C@]12CC[C@H]3[C@@H](C=CC45OC4C(=O)CC[C@]35C)[C@@H]1CCC2=O` (stereo not given in full), the IC50 was 15.3 µM.

On to `Cc1ccc(S(=O)(=O)N2[C@H]3[C@@H]4[C@H](CC[C@]5(C)C(=O)CC[C@@H]45)[C@@]4(C)CCC(=O)C=C4[C@H]32)cc1` (stereo not given in full), for which inhibition was half-maximal at 92.9 µM (IC50).

Regarding `C[C@]12CCC(=O)C=C1[C@H](N=[N+]=[N-])C(O)[C@@H]1[C@@H]2CC[C@]2(C)C(=O)CC[C@@H]12` (stereo not given in full), the IC50 is 47 µM.

As for `C[C@]12CCC(=O)C=C1C(N=[N+]=[N-])=C[C@@H]1[C@@H]2CC[C@]2(C)C(=O)CC[C@@H]12`, the IC50 was 4.55 µM.

Take `C[C@]12CCC(=O)C=C1[C@H](O)C(N=[N+]=[N-])[C@@H]1[C@@H]2CC[C@]2(C)C(=O)CC[C@@H]12` (stereo not given in full): 3.03 µM corresponded to half-maximal inhibition (IC50).

In turn, `C[C@]12CCC(=O)C=C1C1C([C@@H]3[C@@H]2CC[C@]2(C)C(=O)CC[C@@H]32)C1(F)F` (stereo not given in full) showed an IC50 of 0.889 µM.

The compound `C[C@]12CCC(=O)C=C1[C@@H]1N[C@@H]1[C@@H]1[C@@H]2CC[C@]2(C)C(=O)CC[C@@H]12` had an IC50 of 49.2 µM.

On to `CC[C@]12CCC(=O)C=C1C(=O)C[C@@H]1[C@@H]2CC[C@]2(C)C(=O)CC[C@@H]12`, for which the IC50 was 2.2 µM.

In the case of `C[C@]12CC[C@H]3[C@@H](C[C@H]4O[C@]45C(=O)CCC[C@]35C=O)C1CCC2=O` (stereo not given in full), the half-maximal inhibitory concentration (IC50) is 210 µM.

Compound `C[C@]12CCC3[C@@H](CC(=O)[C@]45O[C@H]4CCC[C@]35C=O)C1CCC2=O` (stereo not given in full) gave an IC50 of 150 µM.

Consider `C[C@]12CCC(=O)C=C1C1OC1[C@@H]1[C@@H]2CC[C@]2(C)C(=O)CC[C@@H]12` (stereo not given in full), for which the IC50 is 39 µM.

The compound `CC1=C[C@@]2(C)C(=CC1=O)C(Br)C[C@@H]1[C@@H]2CC[C@]2(C)C(=O)CC[C@@H]12` (stereo not given in full) had a half-maximal inhibitory concentration (IC50) of 0.71 µM.

As for `C[C@]12CCCC(=O)C1CC[C@@H]1[C@@H]2CC[C@]2(C)C(=O)CC[C@@H]12` (stereo not given in full), it took 2.4 µM to reach half-maximal inhibition (IC50).

The compound `C[C@]12CC[C@H]3[C@@H](CCC4=CC(=O)CC[C@@]43CBr)[C@@H]1CCC2=O` showed an IC50 of 1.4 µM.

Regarding `C[C@]12CC[C@H]3[C@@H](C[C@H]4O[C@]45C(=O)CCC[C@]35C)C1CCC2=O` (stereo not given in full), half-maximal inhibition (IC50) was put at 12.5 µM.

`C[C@]12CC[C@H]3[C@@H](CCC4=CC(=O)CC[C@@]43CI)[C@@H]1CCC2=O` had an IC50 of 4.1 µM.

Compound `CC(=O)OC1[C@@H]2[C@H](CC[C@]3(C)C(=O)CC[C@@H]23)[C@@]2(C)CCC(=O)C=C2[C@@H]1N=[N+]=[N-]` (stereo not given in full) had an IC50 of 0.4 µM.

The compound `Cc1ccc(S(=O)(=O)N2[C@@H]3[C@@H]4[C@H](CC[C@]5(C)C(=O)CC[C@@H]45)[C@@]4(C)CCC(=O)C=C4[C@@H]32)cc1` (stereo not given in full) gave an IC50 of 53.8 µM.

`CC(=O)N1[C@H]2[C@@H]3[C@H](CC[C@]4(C)C(=O)CC[C@@H]34)[C@@]3(C)CCC(=O)C=C3[C@H]21`: half-maximal inhibition (IC50) was put at 64.6 µM.

Turning to `CC(=O)O[C@H]1C2=CC(=O)CC[C@]2(C)[C@H]2CC[C@]3(C)C(=O)CC[C@H]3[C@@H]2C1N=[N+]=[N-]` (stereo not given in full), the IC50 was 23.1 µM.

The compound `C[C@]12CC[C@H]3[C@@H](CC(=O)[C@]45O[C@H]4CCC[C@]35C)C1CCC2=O` (stereo not given in full) had an IC50 of 11.5 µM.

Values taken from ChEMBL document CHEMBL5241054, “Effective anti-aromatase therapy to battle against estrogen-mediated breast cancer: Comparative SAR/QSAR assessment on steroidal aromatase inhibitors” (Eur J Med Chem, 2020).
